Experimental data as given in patent US10251915B2, “Co-encapsulation of live cells with oxygen-generating particles” (Wake Forest University Health Sciences, priority 2011, dated 2019).
Entries after “also recorded” stand apart in the source; their conditions may differ.

Experiments:
Isolated human islets = assay: MTS viability assay of islets co-cultured with MPO and antioxidants; assay type: cell-based
Description: FIG. 4: Viability of islets co-cultured with MPO and antioxidants. Isolated human islets were co-cultured with 10 mM MPO for 2 days in normal culture conditions with the following antioxidants: 100 Units/mL Catalase, 1.5 mM Trolox and 30 μM MnTE-2-Pyp. After the two day culture period islet viabilty was determined with an MTS assay. Error bars represent standard deviation, n=5.
Previous studies have shown that the isolation process predisposes islets to subsequent damage and functional impairment and that an SOD mimicking catalytic antioxidant, MnTE-2-PyP (also called AEOL10113), developed by Drs.

[1] = Oxygen release (dissolved oxygen) from POGS encapsulated in alginate microbeads in a hypoxic chamber; assay type: physicochemical; details: for duration of oxygen release from alginate microbeads containing MgO2 in the presence of antioxidant: 2.5% MPO in alginate microcapsules, 100 U/ml catalase, 1.5 mM Trolox, compared to MPO alone
From the text: FIG. 1: Comparison of CaO2 and MgO2 release over six days, dissolved oxygen readings are an average of 5 sample groups with 1500 microcapsules each; measurements were taken in a hypoxic chamber.
FIG. 2: Effect of antioxidants on oxygen release from alginate microcapsules with 2.5% MPO.
Comparison of CPO and MPO: We first examined the oxygen release profiles of two POGS, CPO and MPO encapsulated in alginate microbeads in the absence or presence of catalase (100 U/ml), and the antioxidant, Trolox (1.5 mM). Sieves were used to select both MPO and CPO particles equal to and less than 25 μm in diameter. Then 0.5% by weight solution of 1.5% LVM and either CPO or MPO were prepared respectively. These solutions were then extruded through an encapsulating device forming microspheres measuring […] in diameter, which were allowed to crosslink for 15 minutes in 1.1% CaCl2 solution. After cross-linking, the microbeads were rinsed with HBSS and placed into 50 ml conical tubes (BD, USA) containing 20 mL ultra pure water with 10 mM HEPES (pH=7.4). Tubes were placed in a 1% oxygen environment in a hypoxic glovebox system (Biospherix, USA) with the caps of the tubes removed allowing for gas exchange. Dissolved oxygen readings were taken every 24 hours for 6 days using an Orion 4-star DO Probe (Thermo Science).
Oxygen release from MPO Alginate Capsules: On the basis of a better release profile, we then selected MgO2 for further studies. First the release profiles of various concentrations of MPO were measured. Using the same technique as described above 0%, 0.25%, 0.5%, 1%, 1.5%, 2.0%, 2.5%, 5%, 10%, 20%, 30%, and 40% (by weight) solutions of MPO in 1.5% UP LVM were prepared, with particles larger than 25 μM sieved out of the solution prior to encapsulation. […] Dissolved oxygen levels were measured for up to 250 hours. Using the same methodology we then assessed the effect of the antioxidants, Catalase and Trolox, on oxygen release. […] Capsules were prepared and dissolved oxygen levels were measured as described earlier. […] Dissolved oxygen levels were measured for up to 250 hours.

[2] = test system: islet cell functional mass; details: used in the isolation or culture medium; cited from earlier work

With `[Mg+2].[O-][O-]` [MPO, Magnesium Peroxide] the “effect of MPO on islet viability” value (Isolated human islets; 10 mM MPO, 2 days normal culture) was “diminishing effect” and the release of oxygen ([1]; 0.5% by weight CPO or MPO in 1.5% LVM alginate microbeads, 1% oxygen environment, readings every 24 hours for 6 days) was “higher release of oxygen for up to five days compared to CPO”.

For `CC[n+]1ccccc1-c1c2nc(c(-c3cccc[n+]3CC)c3ccc([n-]3)c(-c3cccc[n+]3CC)c3nc(c(-c4cccc[n+]4CC)c4ccc1[n-]4)C=C3)C=C2.[Mn+3]` [MnTE-2-PyP, Mn (III) tetrakis (N-ethylpyridinium-2-yl) porphyrin], the “effect on viability of islets co-cultured with MPO” value (Isolated human islets; 10 mM MPO, 30 μM MnTE-2-Pyp, 2 days normal culture) is listed as “counteracts the diminishing effect of MPO on islet viability”, the “viability of isolated human islets” value (Isolated human islets; added to islets in normal culture, 30 μM MnTE-2-Pyp, 2 days, n=5) is listed as “significantly (p<0.05) enhances the viability” and the “preservation of islet cell functional mass” value [2] is listed as “beneficial in preserving islet cell functional mass”.

For `Cc1c(C)c2c(c(C)c1O)CCC(C)(C(=O)O)O2` (stereo not shown) [Trolox, 6-hydroxy-2,5,7,8-tetramethylchroman-2-carboxylic acid], the “duration of oxygen release from alginate microbeads containing MgO2 in the presence of antioxidant” value [1] was “this effect is not observed; also recorded: no significant change”.

B1: catalase: Catalase (from bovine liver), peroxide decomposition catalyst (protein, UniProt P00432 2-527, looked up)
Catalase: ADNRDPASDQMKHWKEQRAAQKPDVLTTGGGNPVGDKLNSLTVGPRGPLLVQDVVFTDEMAHFDRERIPERVVHAKGAGAFGYFEVTHDITRYSKAKVFEHIGKRTPIAVRFSTVAGESGSADTVRDPRGFAVKFYTEDGNWDLVGNNTPIFFIRDALLFPSFIHSQKRNPQTHLKDPDMVWDFWSLRPESLHQVSFLFSDRGIPDGHRHMNGYGSHTFKLVNANGEAVYCKFHYKTDQGIKNLSVEDAARLAHEDPDYGLRDLFNAIATGNYPSWTLYIQVMTFSEAEIFPFNPFDLTKVWPHGDYPLIPVGKLVLNRNPVNYFAEVEQLAFDPSNMPPGIEPSPDKMLQGRLFAYPDTHRHRLGPNYLQIPVNCPYRARVANYQRDGPMCMMDNQGGAPNYYPNSFSAPEHQPSALEHRTHFSGDVQRFNSANDDNVTQVRTFYLKVLNEEQRKRLCENIAGHLKDAQLFIQKKAVKNFSDVHPEYGSRIQALLDKYNEEKPKNAVHTYVQHGSHLSAREKANL
For B1, the “duration of oxygen release from alginate microbeads containing MgO2 in the presence of antioxidant” value [1] was “significantly shortened”.
